According to PMC12332667, “Role of Structural Modifications in Peptidomimetic Compounds as Potential Antimicrobial Agents against Staphylococcus aureus and Streptococcus pyogenes: Balancing Bioavailability, Safety, and Antimicrobial Activity” (ACS Omega, 2025):
Converted amounts (≈) assume the structure as drawn. “And” between values parts separate entries of the source, which are not always exact repeats. Equal entries are not always repeated. Residues, ends and D or L forms follow the SMILES beside them.

Key:
[1] = test system: S. agalactiae ATCC 27956; experiment: MIC/MBC broth microdilution, S. agalactiae; format: cell-based, Streptococcus agalactiae; conditions: S. agalactiae
Procedure, shortened: (§1)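 Bacteria inoculated at about 10^5 CFU/mL in BHI broth and incubated 18 h at 37 °C with serial dilutions of peptidomimetics, NCCLS microdilution format. MBC taken as lowest concentration leaving no more than 3 colonies (≥99.9% kill); MIC as lowest concentration without obvious growth (≥90% of untreated); solvent controls included.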

[2] = Hydrophobicity by reverse-phase chromatography; format: physicochemical; conditions: acetonitrile content in the mobile phase at the retention time
Procedure, shortened: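 Hydrophobicity value is the acetonitrile content (%) of the eluent when the compound elutes from a reverse-phase column.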

[3] = test system: E. coli ATCC 25922; experiment: MIC/MBC broth microdilution, E. coli; format: cell-based, Escherichia coli
Procedure, shortened: as §1

[4] = test system: immortalized human keratinocytes (HaCaT); experiment: LDH cytotoxicity test, keratinocytes; format: cell-based; conditions: for cytotoxicity (LDH), in words / concentration at which cytotoxic effect starts: 48 h; for cytotoxicity (LDH), in words: 50-150 μg/mL; for concentration at which cytotoxic effect starts: LDH
Procedure, shortened: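 Cytotoxicity as LDH release after 48 h serum-free treatment (50, 100, 150 μg/mL peptidomimetics) of 46BR.1N fibroblasts or HaCaT keratinocytes seeded at 5000 per well. Absorbance 450 nm; untreated set as 0% and Triton X-100 1% as maximal release; Mann–Whitney U test, p ≤ 0.05.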

[5] = test system: K. pneumoniae ATCC 700603; experiment: MIC/MBC broth microdilution, K. pneumoniae; format: cell-based
Procedure, shortened: as §1

[6] = test system: S. schleiferi c.i.; experiment: MIC/MBC broth microdilution, S. schleiferi; format: cell-based, Staphylococcus schleiferi
Procedure, shortened: as §1

[7] = Stability / presence in human plasma; format: in vitro ADME; conditions: 24 h incubation at 37 °C
Procedure: Blood was drawn from healthy volunteers, and lithium/heparin holding tubes were used to remove the clot by centrifugation. The plasma was aliquoted in sterile conditions and incubated with the desired compounds for 24 h at 37 °C. The samples were prepared under sterile conditions following the previously described protocol. The samples were collected at six time points (0, 1, 2, 3, 6, and 24 h) for determining stability in water solutions, and time points of 0, 10, 20, 30, 40, 50, and 60 min, as well as of 2, 3, 6, and 24 h, for determining stability in human plasma. The analysis was performed by HPLC using a Kromasil C8 column (5 μm, 90 Å, 1.0 mm × 250 mm) monitored by a PDA or ELDS-LT II detector. For quantification, peak areas were compared to a calibration curve calculated by Shimadzu LCsolution Software (Kyoto, Japan). Graphs were prepared in GraphPad Prism (Boston, USA).

SMILES | MIC ([1]; H2O) [µg/mL] | MIC ([1]; water additive EtOH) [µg/mL] | % AcCN (acetonitrile required for elution from the column) [2] | MIC ([3]; H2O) [µg/mL] | MIC ([3]; water additive DMSO) [µg/mL] | MIC ([3]; water additive EtOH) [µg/mL] | cytotoxicity (LDH), in words [4] | MIC ([5]; H2O) [µg/mL] | MIC ([5]; water additive DMSO) [µg/mL] | MIC ([5]; water additive EtOH) [µg/mL] | MBC ([6]; H2O) [µg/mL] | MIC ([6]; H2O) [µg/mL] | MBC ([6]; water additive DMSO) [µg/mL] | MIC ([6]; water additive DMSO) [µg/mL] | MBC ([6]; water additive EtOH) [µg/mL] | MIC ([6]; water additive EtOH) [µg/mL] | MBC ([3]; H2O) [µg/mL] | MBC ([3]; water additive EtOH) [µg/mL] | present in human plasma [7] | MIC ([1]; water additive DMSO) [µg/mL] | further results
CC(C)[C@@H](CNC(=O)C(=Cc1ccccc1)c1ccccc1)NC(=O)[C@H](CCCNC(=N)N)NC(=O)[C@H](CCCCNC(=N)N)NC(=O)OCc1ccccc1 [Compound A-192] | 32 (≈ 41.6 µM) | 32 (≈ 41.6 µM) | 44.8–49.8% and 48.7% | > 512 | 256 (≈ 333 µM) | > 512 | high cytotoxicity toward keratinocytes | > 512 | > 512 | > 512 | 256 (≈ 333 µM) | 256 (≈ 333 µM) | 256 (≈ 333 µM) | 256 (≈ 333 µM) | 256 (≈ 333 µM) | 256 (≈ 333 µM) |  |  |  |  | MBC ([3]; water additive DMSO): 512 µg/mL (≈ 666 µM)
CC(C)[C@@H](CNC(=O)C(=Cc1ccccc1)c1ccccc1)NC(=O)[C@H](Cc1c[nH]cn1)NC(=O)[C@H](CCCCNC(=N)N)NC(=O)OCc1ccccc1 [Compound A-193] |  | 32 (≈ 42.7 µM) | 49.0% and 44.8–49.8% | 256 (≈ 341 µM) | > 512 | 256 (≈ 341 µM) | cytotoxic only at a concentration of 150 μg/mL | > 512 | > 512 | > 512 | 32 (≈ 42.7 µM) | 8 (≈ 10.7 µM) | 8 (≈ 10.7 µM) | 4 (≈ 5.33 µM) | 32 (≈ 42.7 µM) | 8 (≈ 10.7 µM) | 256 (≈ 341 µM) | 512 (≈ 683 µM) |  |  | concentration at which cytotoxic effect starts [4]: 150 µg/mL
CC(C)[C@H](NC(=O)[C@H](Cc1c[nH]cn1)NC(=O)[C@H](CCCNC(=N)N)NC(=O)OCc1ccccc1)C(=O)NCCc1ccccc1 [Compound A-219] (HELM PEPTIDE1{[O=C(OCc1ccccc1)[*:2]].R.H.V.[c1ccc(CCN[*:1])cc1]}$$$$V2.0) | > 512 | > 512 | 42.6% | > 512 | > 512 | > 512 | no adverse effects | > 512 | > 512 | > 512 |  | > 512 |  | > 512 |  | > 512 |  |  | 85–90% | > 512 | 
CC(C)[C@H](NC(=O)[C@H](Cc1c[nH]cn1)NC(=O)[C@H](CCCCN)NC(=O)OCc1ccccc1)C(=O)NCCc1ccccc1 [Compound A-220] (HELM PEPTIDE1{[O=C(OCc1ccccc1)[*:2]].K.H.V.[c1ccc(CCN[*:1])cc1]}$$$$V2.0) | 512 (≈ 826 µM) | 512 (≈ 826 µM) | 42.4% | 512 (≈ 826 µM) | > 512 | 512 (≈ 826 µM) |  | > 512 | > 512 | > 512 |  | > 512 |  | > 512 |  | > 512 | 512 (≈ 826 µM) | 512 (≈ 826 µM) | 85–90% | 512 (≈ 826 µM) | MBC ([1]; H2O): 512 µg/mL (≈ 826 µM); MBC ([1]; water additive DMSO): 512 µg/mL (≈ 826 µM); MBC ([1]; water additive EtOH): 512 µg/mL (≈ 826 µM); cytotoxicity (LDH) ([4]; 48 h, 50, 100 and 150 μg/mL, vs 1% Triton X-100): 10–15% and 10%; concentration at which cytotoxic effect starts [4]: > 150 µg/mL
CC(C)[C@H](NC(=O)[C@H](CCCNC(=N)N)NC(=O)[C@H](CCCNC(=N)N)NC(=O)OCc1ccccc1)C(=O)NCCc1ccccc1 [Compound A-221] (HELM PEPTIDE1{[O=C(OCc1ccccc1)[*:2]].R.R.V.[c1ccc(CCN[*:1])cc1]}$$$$V2.0) | 256 (≈ 384 µM) | 256 (≈ 384 µM) | 43.9% | > 512 | > 512 | > 512 | no adverse effects | > 512 | > 512 | > 512 |  | > 512 |  | > 512 |  | > 512 |  |  | 85–90% | 256 (≈ 384 µM) | MBC ([1]; H2O): 512 µg/mL (≈ 768 µM); MBC ([1]; water additive DMSO): 512 µg/mL (≈ 768 µM); MBC ([1]; water additive EtOH): 512 µg/mL (≈ 768 µM)
